Results reported in patent publication US20240366540A1, “MITOFUSIN INHIBITORS AND USES THEREOF” (Albert Einstein College of Medicine, priority 2021, published 2024).

How the values were obtained:
MEFs [1] = experiment: Mitochondrial respiration in cellulo (OCR, Seahorse XF24); type: cell-based, mouse; conditions: WT MEFs; MASM7 1 μM or MFI8 20 μM, 6 hrs
Protocol: Mitochondrial respiration in cellulo. Mitochondrial oxygen consumption rates (OCR) were assessed using a XF24 Analyzer (Seahorse Biosciences, Billerica MA, USA). In brief, 3×10^4 MEFs were cultured in a XF24 cell culture microplate containing DMEM supplemented with 10% fetal bovine serum. […] OCR was normalized to cell number or total protein content per well for each condition tested.

MEFs [2] = experiment: Cytochrome C release; type: cell-based, mouse; conditions: 6 hrs treatment, cytosolic and mitochondrial fractions
Protocol: Cytochrome C release. MEFs were seeded in a 10 cm^2 dish and grown at ˜70% confluence. Following 6 hrs treatment with MFI8, cells were harvested and lysed in digitonin buffer [20 mM Hepes, pH 7.2, 10 mM KCl, 5 mM MgCl2, Im MEDTA, 1 mM EGTA, 250 mM sucrose, 0.025% Digitonin (from 5% w/v stock) and complete protease inhibitors (Roche Applied Science)] on ice for 10 min. Then, supernatants were isolated by centrifugation at 15,000×g for 10 min. Mitochondrial pellets solubilized in 1% Triton X-100/PBS for 1 hr at 4° C. Solubilized Pellets were subjected to a 14,000×rpm spin for 10 min. Samples were prepared for western blot analysis and separated by 4-12% NuPage (Life Technologies).

U2OS cells = experiment: Caspase-3/7 activation assay in U2OS cells; type: cell-based
Protocol: (§1) Caspase-3/7 activation assay. Cells (5×10^3 cells/well) were seeded in a 96-well white plate and treated with MASM7, MFI8. Caspase 3/7 activation was measured after 6 hr by addition of the Caspase-Glo 3/7 reagent according to the manufacturer's protocol (Promega). Luminescence was detected by a F200 PRO microplate reader (TECAN). Caspase assays were performed in at least triplicate and the data normalized to vehicle-treated control wells. Dilutions of MASM7 or MFI8 were performed using a TECAN D300e Digital Dispenser from 10 mM stocks.

MEFs [3] = experiment: DNA damage, yH2AX immunofluorescence in MEFs; type: cell-based, mouse; conditions: 6 h
Protocol: Immunofluorescent analysis and microscopy. […] After treatments, cells were washed with PBS and fixed with 4% PFA for 15 min. […] After incubation with primary antibodies, cells were washed with PBS and incubated with the appropriate mouse secondary antibody (ThermoFisher Scientific; A-11001) in the blocking solution. After PBS washes, coverslips were dipped in water and mounted on glass slides using Vectashield containing DAPI (Vector laboratories). […] Data were analyzed with ImageJ.

MEFs [4] = experiment: RNA-seq gene expression; type: cell-based, mouse
Description: RNA-seq. Sequencing results were demultiplexed and converted to FASTQ format using Illumina bcl2fastq software. The sequencing reads were adapter and quality trimmed with Trimmomatic and then aligned to the mouse genome (build mm10/GRCm38) using the splice-aware STAR aligner. The featureCounts program was utilized to generate counts for each gene based on how many aligned reads overlap its exons. These counts were then normalized and used to test for differential expression using negative binomial generalized linear models implemented by the DESeq2 R package.

BXPC3 cells = experiment: Cell viability, pancreatic cancer cells; type: cell-based; conditions: BXPC3, 72 hr, Cell titer Glo
Protocol: (§2) Cell titer Glo was used to measure viability. Cells were treated with MFI8 for 72 hr (n=3, mean±SD).
(§3) Cell viability assay. Cells (5×10^3 cells/well) were seeded in a 96-well white plate and treated with serial dilutions of MASM7 or MFI8. Cell viability was assayed after 72 hrs by addition of CellTiter-Glo reagent according to the manufacturer's protocol (Promega). Luminescence was measured using a F200 PRO microplate reader (TECAN). Viability assays were performed in at least triplicate and the data normalized to vehicle-treated control wells. Dilutions of MASM7 or MFI8 were performed using a TECAN D300e Digital Dispenser from 10 mM stocks.

cells = experiment: Cell death assay (Annexin V / propidium iodide); type: cell-based; conditions: for sensitization to BV6-induced cell death: in combination with BV6
Protocol: (§4) Cell death assay. Cells (2×10^5 cells/well) were seeded in a 6-well plate and treated with the indicated drugs for 6 hours. Cells were dissociated using Accutase (Thermo Fisher; Cat. #00-4555-56) in order to avoid accidental exposure of phosphatidylserine on the outer plasma membrane. Cell death was evaluated with Dead Cell Apoptosis Kit with Annexin V Alexa Fluor™ 488 & Propidium Iodide (Thermo Fisher; Cat. #V13241) according to manufacturer's protocol. Data was acquired by BD LSRII flow cytometer system using BD FACSDiva software. Data was analyzed by FlowJo (BD).

MEFs [5] = experiment: Caspase-3/7 activation assay; type: cell-based, mouse
Protocol: as §1

Calu-6 cells [6] = experiment: Cell death (Annexin V) in Calu-6 cells; type: cell-based; conditions: 20 μM, indicated timepoints
Protocol: Calu-6 cells were treated with MFI8 (20 μM). Cell death was monitored at the indicated timepoints using Annexin V as a readout. Data represent mean (n=3).
as §4

THP-1 cells = experiment: Cell death with BV6 in THP-1 cells; type: cell-based
Protocol: as §4

[7] = test system: mitochondrial biogenesis markers; experiment: Mitochondrial biogenesis markers by q-PCR; type: cell-based
Protocol: Analysis of mitochondrial biogenesis-related genes by q-PCR. Total RNA was extracted by using RNeasy Mini Kit (Qiagen) followed by cDNA synthesis using the SuperScript IV VILO Master Mix (Thermo Scientific), both performed according to the manufacturer's protocol. q-PCR was performed using the following primers: For the q-PCR reaction, Power SYBR Green master mix (Thermo Scientific) was used according to the manufacturer's instructions. […] Rpl39 was used as housekeeping gene and 2^−ΔΔCT method was applied to determine the relative mRNAs expression.

MOLM13 cells = experiment: Caspase 3/7 activation in MOLM13 cells with AMG-176; type: cell-based; conditions: increasing concentrations of AMG-176 and MFI8
Protocol: as §1

Calu-6 cells [8] = experiment: Cell viability, lung cancer cells; type: cell-based; conditions: Calu-6, 72 hr, Cell titer Glo
Protocol: as §2, §3

H2405 cells = experiment: Cell viability, lung cancer cells; type: cell-based; conditions: H2405, 72 hr, Cell titer Glo
Protocol: as §2, §3

A375 cells = experiment: Cell viability, melanoma cells; type: cell-based; conditions: A375, 72 hr, Cell titer Glo
Protocol: as §2, §3

SKML-30 cells = experiment: Cell viability, melanoma cells; type: cell-based; conditions: SKML-30, 72 hr, Cell titer Glo
Protocol: as §2, §3

Which results are given for `Cc1cccc(NC(C)c2cc(Cl)ccc2O)c1C` (stereo not shown) [MFI8, 4-Chloro-2-(1-((2,3-dimethylphenyl)amino)ethyl)phenol]?
respiration and mitochondrial ATP production (OCR) (MEFs [1]): reduced respiration and mitochondrial ATP production; cytochrome c release to the cytosol (MEFs [2]): cytochrome c was released to the cytosol, albeit at modest levels; caspase-3/7 activation (U2OS cells): induced caspase-3/7 activation; DNA damage (yH2AX foci) (MEFs [3]; MFN1/MFN2 DKO MEFs): not in MFN1/MFN2 DKO MEFs; DNA damage (yH2AX foci) (MEFs [3]; WT MEFs): increased yH2AX foci in WT MEFs; expression of genes involved in DNA damage response (MEFs [4]; MEFs): up-regulated several genes that are involved in DNA damage response; gene expression of subunits of the respiratory complexes (MEFs [4]; RNA-seq): reduced the gene expression of several nuclear-encoded subunits of the respiratory complexes; viability (BXPC3 cells): concentration responsively reduces viability; percentage of dead cells (cells; compound alone, upon caspase 3/7 activation): did not increase the percentage of dead cells; sensitization to BV6-induced cell death (cells): potentiated the capacity of BV6 to induce cell death; sensitization to BV6-induced cell death (cells; deletion of MFN1/2 and APAF): abolished the capacity of MFI8 to sensitize cells to BV6 treatment; caspase-3/7 activity (MEFs [5]; 6 hr, Caspase-Glo 3/7): concentration-responsively increased caspase-3/7 activity; caspase 3/7 activity (MEFs [5]; deletion of APAF-1): detrimental for the capacity of MFI8 to increase caspase 3/7 activity; caspase-3/7 activity (MEFs [5]; deletion of MFN1/MFN2): impaired the capacity of MFI8 to increase caspase-3/7 activity; apoptosis / cell death (Annexin V) (Calu-6 cells [6]): induces apoptosis in Calu-6 cells; cell death in combination with BV6 (THP-1 cells): synergistically induce cell death; gene expression levels of mitochondrial biogenesis markers [7]: no alteration; caspase 3/7 activation in response to AMG-176 (MOLM13 cells): sensitizes cells to caspase activation; viability (Calu-6 cells [8]): concentration responsively reduces viability; viability (H2405 cells): concentration responsively reduces viability; viability (A375 cells): concentration responsively reduces viability; viability (SKML-30 cells): concentration responsively reduces viability
